The record followed here is the Kinase Knowledgebase extract (Sharma et al. 2016).

The target in the assay is CDK2 (UniProt P24941). Kind of assay: Enzyme Assay.
As to `CC(=O)N1[C@H](C)CN(c2cc(-n3cnc(Nc4ccc(NC(=O)OC(C)C)cc4)n3)ccn2)C[C@@H]1C`, the Ki (commonly a measure of affinity in units of concentration, obtained from inhibition or displacement) was in the range of 500 to 1000 nM.

The compound `CCOC(=O)c1ccc(Nc2ncn(-c3ccnc(N4C[C@@H](C)N(C(C)=O)[C@@H](C)C4)c3)n2)cc1` registered a Ki of 500 to 1000 nM.

As for `CCOc1ccc(Nc2ncn(-c3ccccc3)n2)cc1`, the Ki is over 1000 nM.

As for `COc1cc(Nc2ncn(-c3ccc(C#N)cc3)n2)cc(OC)c1OC`, the Ki was 500 to 1000 nM.

Consider `CC1CCCN1c1cc(-n2cnc(Nc3ccccc3)n2)ccn1` (stereo not given), for which the Ki was under 500 nM.

`COCC(=O)N1CCCN(c2cc(-n3cnc(Nc4ccccc4)n3)ccn2)CC1` had a Ki of over 1000 nM.

In turn, `CCCC(=O)N1CCCN(c2cc(-n3cnc(Nc4ccccc4)n3)ccn2)CC1` came in with a Ki of over 1000 nM.

Compound `CCOC(=O)c1ccc(Nc2ncn(-c3ccnc(N4CCCN(C(C)=O)CC4)c3)n2)cc1` yielded a Ki of over 1000 nM.

`COc1cc(Nc2ncn(-c3ccccc3)n2)cc(OC)c1OC` returned a Ki of over 1000 nM.

Turning to `c1ccc(-n2cnc(Nc3ccc4c(c3)OCCO4)n2)cc1`, the inhibition constant Ki is over 1000 nM.

Turning to `CN(Cc1ccccc1)c1cc(-n2cnc(Nc3ccccc3)n2)ccn1`, the Ki was under 500 nM.

Take `CC(=O)N1CCCN(c2cc(-n3cnc(Nc4ccccc4)n3)ccn2)CC1`: the Ki was 500 to 1000 nM.

Compound `CCCN(CCO)c1cc(-n2cnc(Nc3ccccc3)n2)ccn1` gave a Ki of under 500 nM.

`O=C(Nc1cc(-n2cnc(Nc3ccccc3)n2)ccn1)C1CCCCC1` displayed a Ki of 500 to 1000 nM.

`CC(C)CCN(C)c1cc(-n2cnc(Nc3ccccc3)n2)ccn1` showed a Ki of under 500 nM.

As for `CC(=O)N1[C@H](C)CN(c2cc(-n3cnc(Nc4ccc(NC(=O)c5ccco5)cc4)n3)ccn2)C[C@@H]1C`, the Ki was 500 to 1000 nM.

Turning to `CC(=O)N1[C@H](C)CN(c2cc(-n3cnc(Nc4ccccc4)n3)ccn2)C[C@@H]1C`, the Ki is under 500 nM.

The compound `CCN(CC)CCNc1cc(-n2cnc(Nc3ccccc3)n2)ccn1` had a Ki of over 1000 nM.

`CN1CCN(c2ccc(Nc3ncn(-c4ccccc4)n3)cn2)CC1` gave a Ki of over 1000 nM.

As to `CC(=O)N1[C@H](C)CN(c2cc(-n3cnc(Nc4ccc(N5CCN(S(=O)(=O)c6ccc(C)cc6)CC5)cc4)n3)ccn2)C[C@@H]1C`, the Ki lay in the range of 500 to 1000 nM.

`CCN(CCO)c1cc(-n2cnc(Nc3ccccc3)n2)ccn1` came in with a Ki of under 500 nM.

Turning to `CC(C)(C)CC(=O)Nc1cc(-n2cnc(Nc3ccccc3)n2)ccn1`, the Ki was over 1000 nM.

For `c1ccc(Nc2ncn(-c3ccnc(N4CCCCCCC4)c3)n2)cc1`, the Ki was under 500 nM.

In the case of `CC(=O)N1CCCN(c2cc(-n3cnc(Nc4ccccc4)n3)ncn2)CC1`, the inhibition constant Ki is over 1000 nM.

`N#CCC(=O)N1CCCN(c2cc(-n3cnc(Nc4ccccc4)n3)ccn2)CC1`: the Ki was under 500 nM.

`c1ccc(Nc2ncn(-c3ccnc(N4CCCCC4)c3)n2)cc1`: the Ki was under 500 nM.

For the compound `CC(=O)N1[C@H](C)CN(c2cc(-n3cnc(Nc4ccc(N5CCN(C(=O)OC(C)(C)C)CC5)cc4)n3)ccn2)C[C@@H]1C`, the Ki is under 500 nM.

As for `CC(=O)N1[C@H](C)CN(c2cc(-n3cnc(Nc4ccc(NC(=O)N(C)C)cc4)n3)ccn2)C[C@@H]1C`, the Ki was over 1000 nM.

For the compound `COC(=O)Nc1ccc(Nc2ncn(-c3ccnc(N4C[C@@H](C)N(C(C)=O)[C@@H](C)C4)c3)n2)cc1`, the Ki was under 500 nM.

`CCC(=O)N1CCCN(c2cc(-n3cnc(Nc4ccccc4)n3)ccn2)CC1` displayed a Ki of over 1000 nM.

`CC(=O)N1[C@H](C)CN(c2cc(-n3cnc(Nc4ccc(NC(=O)OCC(C)C)cc4)n3)ccn2)C[C@@H]1C` came in with a Ki of 500 to 1000 nM.

In turn, `CC(=O)N1[C@H](C)CN(c2cc(-n3cnc(Nc4ccc(NC(=O)NC(C)(C)C)cc4)n3)ccn2)C[C@@H]1C` gave an inhibition constant (Ki) of 500 to 1000 nM.

Consider `COCCN(C)c1cc(-n2cnc(Nc3ccccc3)n2)ccn1`, for which the Ki was under 500 nM.

As for `CCNC(=O)Nc1ccc(Nc2ncn(-c3ccnc(N4C[C@@H](C)N(C(C)=O)[C@@H](C)C4)c3)n2)cc1`, the Ki was under 500 nM.

In the case of `CC(=O)N1[C@H](C)CN(c2cc(-n3cnc(Nc4ccc(NC(=O)OCC(C)(C)C)cc4)n3)ccn2)C[C@@H]1C`, the inhibitory constant (Ki) fell in the range of 500 to 1000 nM.

In turn, `CCOc1cccc(Nc2ncn(-c3ccccc3)n2)c1` registered a Ki of over 1000 nM.

`CC(=O)N1[C@H](C)CN(c2cc(-n3cnc(Nc4ccc(NC(=O)NC(C)C)cc4)n3)ccn2)C[C@@H]1C` returned a Ki of under 500 nM.

In turn, `c1ccc(Nc2ncn(-c3ccnc(NC4CCCCC4)c3)n2)cc1` displayed a Ki of under 500 nM.

For the compound `O=c1[nH]c2ccccc2n1C1CCN(c2cc(-n3cnc(Nc4ccccc4)n3)ccn2)CC1`, the Ki is over 1000 nM.

`O=C(C1CCCO1)N1CCN(c2cc(-n3cnc(Nc4ccccc4)n3)ccn2)CC1` (stereo not given) gave a Ki of over 1000 nM.

`CC(C)Oc1cccc(Nc2ncn(-c3ccccc3)n2)c1` displayed a Ki of over 1000 nM.

Consider `CC(=O)N1[C@H](C)CN(c2cc(-n3cnc(Nc4ccccc4)n3)ncn2)C[C@@H]1C`, for which the Ki was over 1000 nM.

In turn, `CN(Cc1cccnc1)c1cc(-n2cnc(Nc3ccccc3)n2)ccn1` returned a Ki of under 500 nM.

`CCCNC(=O)Nc1ccc(Nc2ncn(-c3ccnc(N4C[C@@H](C)N(C(C)=O)[C@@H](C)C4)c3)n2)cc1` returned a Ki of under 500 nM.

For the compound `CC(=O)N1[C@H](C)CN(c2cc(-n3cnc(Nc4ccc(N5CCOCC5)cc4)n3)ccn2)C[C@@H]1C`, the Ki is under 500 nM.

For the compound `O=C(CC1CCCC1)Nc1cc(-n2cnc(Nc3ccccc3)n2)ccn1`, the Ki is over 1000 nM.

`CN(CCO)c1cc(-n2cnc(Nc3ccccc3)n2)ccn1` registered a Ki of under 500 nM.

Compound `CC(=O)N1[C@H](C)CN(c2cc(-n3cnc(Nc4ccc(NC(=O)c5cccs5)cc4)n3)ccn2)C[C@@H]1C` had a Ki of under 500 nM.

In turn, `CC(C)CC(=O)N1CCCN(c2cc(-n3cnc(Nc4ccccc4)n3)ccn2)CC1` displayed a Ki of over 1000 nM.

Take `CN1C(C)(C)CC(Nc2cc(-n3cnc(Nc4ccccc4)n3)ccn2)CC1(C)C`: the Ki lay in the range of 500 to 1000 nM.

Compound `CC(C)C(=O)N1CCCN(c2cc(-n3cnc(Nc4ccccc4)n3)ccn2)CC1` registered a Ki of over 1000 nM.

Consider `CC(=O)N1[C@H](C)CN(c2cc(-n3cnc(Nc4ccc(NC(=O)C(F)(F)F)cc4)n3)ccn2)C[C@@H]1C`, for which the inhibition constant (Ki) was under 500 nM.

As for `O=C(Cc1ccccc1)Nc1cc(-n2cnc(Nc3ccccc3)n2)ccn1`, the Ki was under 500 nM.

For the compound `c1ccc(-n2cnc(Nc3ccc(N4CCOCC4)cc3)n2)cc1`, the Ki is over 1000 nM.

`c1ccc(Nc2ncn(-c3ccnc(N4CCCCCC4)c3)n2)cc1` returned a Ki of under 500 nM.

Take `CC(=O)N1[C@H](C)CN(c2cc(-n3cnc(Nc4ccc(N)cc4)n3)ccn2)C[C@@H]1C`: the inhibitory constant (Ki) is under 500 nM.

The compound `CCOC(=O)Nc1ccc(Nc2ncn(-c3ccnc(N4C[C@@H](C)N(C(C)=O)[C@@H](C)C4)c3)n2)cc1` returned a Ki of under 500 nM.

`CCCOC(=O)Nc1ccc(Nc2ncn(-c3ccnc(N4C[C@@H](C)N(C(C)=O)[C@@H](C)C4)c3)n2)cc1` had a Ki of under 500 nM.

Compound `CN(C)CCCN(C)c1cc(-n2cnc(Nc3ccccc3)n2)ccn1` came in with an inhibitory constant (Ki) of over 1000 nM.

The compound `C[C@@H]1CN(c2cc(-n3cnc(Nc4ccccc4)n3)ncn2)C[C@H](C)N1` returned a Ki of over 1000 nM.

Consider `OC[C@H]1CCCN(c2cc(-n3cnc(Nc4ccccc4)n3)ccn2)C1`, for which the Ki is under 500 nM.

The compound `O=C(CCc1ccccc1)Nc1cc(-n2cnc(Nc3ccccc3)n2)ccn1` returned a Ki of 500 to 1000 nM.

Regarding `c1ccc(-n2cnc(Nc3ccc(N4CCOCC4)nc3)n2)cc1`, the Ki is over 1000 nM.

In turn, `c1ccc(-n2cnc(Nc3ccnc(N4CCOCC4)c3)n2)cc1` had a Ki of 500 to 1000 nM.

The compound `c1ccc(-n2cnc(Nc3ccnc(NCCN4CCOCC4)c3)n2)cc1` had a Ki of over 1000 nM.
